From the supplement of paper PMC8443649

Test system: PATU8988T-SmBKRAS-LgBCRAF
Experiment: KRAS:CRAF interaction luminescence (EndoBind) relative to DMSO control (fold of DMSO); higher = more KRAS-CRAF complex
Method: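 EndoBind assay: PATU8988T cells with CRISPR knock-in SmB-KRAS(G12V) and LgB-CRAF, seeded with RealTime-Glo pro-substrate (1:2000) in 384-well plates. Cells were treated with RAF inhibitors (GDC0879, LY3009120, NVP-LHS533) or the MEK inhibitor Selumetinib, and the same plate was read for split-NanoLuc luminescence at several time points. Signal is normalised to the DMSO-treated wells at each time point; n=3 wells.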

OCCn1cc(-c2ccc3c(c2)CC/C3=N\O)c(-c2ccncc2)n1 [GDC0879]
KRAS:CRAF interaction luminescence
Details | time after treatment 0 h | time after treatment 1 h | time after treatment 4 h | time after treatment 6 h | time after treatment 9 h | time after treatment 12 h
0.00375 µM | 0.967 | 0.989 | 0.964 | 0.967 | 0.958 | 0.9832
0.0075 µM | 1.03 | 1.03 | 0.976 | 0.964 | 0.958 | 0.982
0.015 µM | 0.987 | 1.03 | 0.985 | 0.966 | 0.953 | 0.969
0.03 µM | 0.989 | 1.1 | 1.03 | 1.03 | 1.01 | 1.01
0.06 µM | 0.977 | 1.22 | 1.1 | 1.09 | 1.07 | 1.08
0.12 µM | 0.964 | 1.27 | 1.19 | 1.18 | 1.14 | 1.16
0.24 µM | 0.983 | 1.4 | 1.4 | 1.38 | 1.36 | 1.36
0.46875 µM | 1.01 | 1.5 | 1.62 | 1.61 | 1.58 | 1.59
0.9375 µM | 1.01 | 1.53 | 1.75 | 1.81 | 1.74 | 1.78
1.875 µM | 1.03 | 1.56 | 1.83 | 1.92 | 1.87 | 1.86
3.75 µM | 1.03 | 1.54 | 1.85 | 1.93 | 1.9 | 1.99
7.5 µM | 1.05 | 1.54 | 1.87 | 1.98 | 1.95 | 2.05
15 µM | 1.02 | 1.46 | 1.8 | 1.99 | 2.03 | 2.15
30 µM | – | – | 1.66 | – | – | –

Cn1cnc2c(F)c(Nc3ccc(Br)cc3Cl)c(C(=O)NOCCO)cc21 [Selumetinib]
KRAS:CRAF interaction luminescence
Details | time after treatment 0 h | time after treatment 1 h | time after treatment 4 h | time after treatment 6 h | time after treatment 9 h | time after treatment 12 h
0.00375 µM | 0.968 | 0.983 | 0.958 | 0.954 | 0.937 | 0.963
0.0075 µM | 0.975 | 0.977 | 0.949 | 0.931 | 0.943 | 0.974
0.015 µM | 1.01 | 0.979 | 0.958 | 0.953 | 0.939 | 0.934
0.03 µM | 0.961 | 0.971 | 0.973 | 0.97 | 0.956 | 0.965
0.06 µM | 0.995 | 0.976 | 0.976 | 0.935 | 0.945 | 0.984
0.12 µM | 0.994 | 0.979 | 0.974 | 0.975 | 0.948 | 0.973
0.24 µM | 0.994 | 0.993 | 0.988 | 0.975 | 0.96 | 0.963
0.46875 µM | 1 | 0.995 | 1 | 0.985 | 0.982 | 0.992
0.9375 µM | 1.01 | 1.04 | 1.02 | 1.03 | 0.994 | 1.01
1.875 µM | 0.978 | 1.07 | 1.06 | 1.06 | 1.04 | 1.06
3.75 µM | 0.99 | 1.14 | 1.12 | 1.1 | 1.1 | 1.11
7.5 µM | 1.01 | 1.02 | 1 | 0.995 | 0.981 | 0.998
15 µM | 1.02 | 1.02 | 1 | 0.983 | 0.974 | 0.987
30 µM | – | – | 0.953 | – | – | –

CNc1ncc2cc(-c3cc(NC(=O)NCCC(C)(C)C)c(F)cc3C)c(C)nc2n1
KRAS:CRAF interaction luminescence
Details | time after treatment 0 h | time after treatment 1 h | time after treatment 4 h | time after treatment 6 h | time after treatment 9 h | time after treatment 12 h
0.00375 µM | 0.987 | 0.979 | 1.01 | 1.05 | 1.09 | 1.15
0.0075 µM | 0.976 | 0.98 | 1.04 | 1.1 | 1.15 | 1.24
0.015 µM | 0.996 | 0.98 | 1.07 | 1.16 | 1.22 | 1.32
0.03 µM | 0.983 | 0.968 | 1.14 | 1.24 | 1.35 | 1.45
0.06 µM | 1 | 0.994 | 1.21 | 1.34 | 1.46 | 1.58
0.12 µM | 1 | 0.996 | 1.26 | 1.42 | 1.58 | 1.7
0.24 µM | 0.955 | 0.991 | 1.35 | 1.57 | 1.76 | 1.96
0.46875 µM | 0.987 | 1.03 | 1.42 | 1.67 | 1.84 | 2.05
0.9375 µM | 0.982 | 1.06 | 1.51 | 1.75 | 1.91 | 2.07
1.875 µM | 1 | 1.09 | 1.54 | 1.8 | 1.91 | 2.07
3.75 µM | 0.971 | 1.08 | 1.59 | 1.77 | 1.89 | 2.04
7.5 µM | 1.03 | 1.16 | 1.57 | 1.74 | 1.8 | 1.92
15 µM | 1.03 | 1.14 | 1.47 | 1.59 | 1.62 | 1.78
30 µM | – | – | 1.13 | – | – | –
